The structures appear in SMILES notation. Entries after “also recorded” stand apart in the source; their conditions may differ. Like-named read-outs stand apart in the source and are kept apart here.

This note sets out measurements from patent publication US11427548B2 (Arvinas Operations, Inc., priority 2015, dated 2022).

For data set [1], the target named is T1, Androgen Receptor (Homo sapiens, UniProt P10275+P40337, T878A).
T1 construct: Compounds have been evaluated in this assay in LNCaP and/or VCaP cells utilizing similar protocols; endogenous in cells; host or cells: LNCaP cells
T1 sequence (P10275 whole entry T878A): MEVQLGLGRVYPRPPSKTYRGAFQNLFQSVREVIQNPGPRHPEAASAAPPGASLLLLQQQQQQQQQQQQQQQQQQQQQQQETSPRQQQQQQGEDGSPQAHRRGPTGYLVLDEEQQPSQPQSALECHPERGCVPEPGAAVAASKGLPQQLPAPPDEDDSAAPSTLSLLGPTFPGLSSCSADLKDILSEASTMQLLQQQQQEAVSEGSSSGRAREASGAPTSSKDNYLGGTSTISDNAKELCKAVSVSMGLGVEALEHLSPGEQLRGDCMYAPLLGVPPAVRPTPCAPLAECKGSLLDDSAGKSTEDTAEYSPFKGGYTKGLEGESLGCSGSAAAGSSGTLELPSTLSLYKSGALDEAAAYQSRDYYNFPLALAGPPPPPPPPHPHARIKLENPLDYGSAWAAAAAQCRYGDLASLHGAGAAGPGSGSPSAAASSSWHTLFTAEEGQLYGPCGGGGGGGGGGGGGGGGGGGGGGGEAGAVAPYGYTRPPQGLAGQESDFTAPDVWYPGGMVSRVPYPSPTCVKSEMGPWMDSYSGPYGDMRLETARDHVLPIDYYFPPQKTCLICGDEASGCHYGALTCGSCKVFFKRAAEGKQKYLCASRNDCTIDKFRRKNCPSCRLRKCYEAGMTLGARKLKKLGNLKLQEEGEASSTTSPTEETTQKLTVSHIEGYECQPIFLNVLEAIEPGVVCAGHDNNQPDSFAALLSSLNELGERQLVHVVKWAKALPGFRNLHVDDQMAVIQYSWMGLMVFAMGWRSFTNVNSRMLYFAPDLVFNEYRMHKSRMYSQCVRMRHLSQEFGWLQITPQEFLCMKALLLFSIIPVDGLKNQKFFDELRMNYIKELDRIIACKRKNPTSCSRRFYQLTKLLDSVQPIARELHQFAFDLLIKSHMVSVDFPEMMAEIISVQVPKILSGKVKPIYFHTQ
T1 sequence (P40337 whole entry): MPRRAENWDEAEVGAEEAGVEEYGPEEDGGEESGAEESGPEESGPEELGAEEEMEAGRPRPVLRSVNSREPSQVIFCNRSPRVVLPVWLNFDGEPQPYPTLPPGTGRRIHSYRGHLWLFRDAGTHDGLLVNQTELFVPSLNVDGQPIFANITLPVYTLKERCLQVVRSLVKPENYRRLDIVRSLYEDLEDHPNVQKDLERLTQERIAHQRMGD
T1 sequence (Q15369 whole entry partner): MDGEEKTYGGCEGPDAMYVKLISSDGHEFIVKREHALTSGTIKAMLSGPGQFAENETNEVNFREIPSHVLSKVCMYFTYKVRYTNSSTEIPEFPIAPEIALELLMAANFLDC
T1 sequence (Q15370 whole entry partner): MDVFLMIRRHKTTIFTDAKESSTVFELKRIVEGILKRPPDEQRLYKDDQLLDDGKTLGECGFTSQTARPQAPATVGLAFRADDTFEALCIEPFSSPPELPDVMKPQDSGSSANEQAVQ
Put plainly: Androgen Receptor ELISA assay (PathScan AR ELISA) in LNCaP cells: AR degradation, Dmax and DC50. In kind it is cell-based. For orientation: ELISA stands for enzyme-linked immunosorbent assay.

Data set [2] deals with LNCaP cells transduced with AR F876L construct. The data set is described as follows: Anti-proliferation in LNCaP F876L (CellTiterGlo). To be noted: Charcoal Stripped Serum media, indicated doses for 7 days. In kind it is cell-based. Here is the method: FIG. 3. Anti-proliferation in LNCaP F876L. […] LNCaP cells transduced with AR F876L construct were cultured in Charcoal Stripped Serum containing media.
4. Anti-Proliferation in LNCaP F876L.
LNCaP cells transduced with AR F876L construct were cultured in Charcoal Stripped Serum containing media. […] CellTiterGlo reagent (Promega) was employed to assess proliferation.
On the technique in general: Cellular ATP, detected with luciferase, serves as a proxy for viable cell number.

The target in a further data set is T2, AR (Homo sapiens, UniProt P10275+P40337, T878A).
T2 construct: Compounds have been evaluated in this assay in LNCaP and/or VCaP cells utilizing similar protocols; endogenous in cells; host or cells: LNCaP cells
T2 sequence (P10275 whole entry T878A): as the sequence (P10275 whole entry T878A) above
T2 sequence (P40337 whole entry): as the sequence (P40337 whole entry) above
T2 sequence (Q15369 whole entry partner): as the sequence (Q15369 whole entry partner) above
T2 sequence (Q15370 whole entry partner): as the sequence (Q15370 whole entry partner) above
Put plainly: AR degradation of PROTAC is E3 ligase dependent (LNCaP cells). The data set is classed as cell-based. An excerpt: FIG. 7A and FIG. 7B. AR degradation of PROTAC is E3 ligase dependent.
8. AR Degradation of PROTAC is E3 Ligase Dependent.

The nature of data set [3]: PROTAC subcutaneous pharmacokinetics in CD-1 mice. The data set is classed as in vivo. To be noted: male, plasma, CD-1 Mouse, 10 mg/kg SC dose; for AUC(0-t): read-out: Plasma Exposure AUC0-24; for Cmax: read-out: Plasma Exposure Cmax. The protocol: (§1) 9. PROTAC Prodrug Oral Pharmacokinetics and PROTAC Subcutaneous Phamacokinetics.
(§2) Representative Pharmacokinetic Procedure
(§3) Male CD-1 mice (6-8 weeks old, weighing 20-30 g, 3 per study) with free access to food and water were administered with the test article at 10 mg/kg either by oral gavage or sub-cutaneous injection in the formulation specified in tables 20 and 21, at 10 mL/kg.
(§4) Approximately 0.04 mL blood samples were collected from the dorsal metatarsal vein serially at 0.25, 0.5, 1, 2, 4, 8 and 24 h timepoints; heparin was used as the anticoagulant. The samples were centrifuged at 4000 g for 5 min at 4° C. then stored at −75° C. prior to analysis.
(§5) The plasma samples were analysed via an LC/MS/MS method quantitating for unchanged, administered test article, and/or a derivative species as appropriate. WinNonlin (Phoenix™) was used for the pharmacokinetic calculations and modeling, to generate parameters such as Cmax and AUC.

Data set [4] deals with T3, Androgen Receptor (Homo sapiens, UniProt P10275).
T3 construct: endogenous in cells; host or cells: VCaP cells
T3 sequence (P10275 1-920): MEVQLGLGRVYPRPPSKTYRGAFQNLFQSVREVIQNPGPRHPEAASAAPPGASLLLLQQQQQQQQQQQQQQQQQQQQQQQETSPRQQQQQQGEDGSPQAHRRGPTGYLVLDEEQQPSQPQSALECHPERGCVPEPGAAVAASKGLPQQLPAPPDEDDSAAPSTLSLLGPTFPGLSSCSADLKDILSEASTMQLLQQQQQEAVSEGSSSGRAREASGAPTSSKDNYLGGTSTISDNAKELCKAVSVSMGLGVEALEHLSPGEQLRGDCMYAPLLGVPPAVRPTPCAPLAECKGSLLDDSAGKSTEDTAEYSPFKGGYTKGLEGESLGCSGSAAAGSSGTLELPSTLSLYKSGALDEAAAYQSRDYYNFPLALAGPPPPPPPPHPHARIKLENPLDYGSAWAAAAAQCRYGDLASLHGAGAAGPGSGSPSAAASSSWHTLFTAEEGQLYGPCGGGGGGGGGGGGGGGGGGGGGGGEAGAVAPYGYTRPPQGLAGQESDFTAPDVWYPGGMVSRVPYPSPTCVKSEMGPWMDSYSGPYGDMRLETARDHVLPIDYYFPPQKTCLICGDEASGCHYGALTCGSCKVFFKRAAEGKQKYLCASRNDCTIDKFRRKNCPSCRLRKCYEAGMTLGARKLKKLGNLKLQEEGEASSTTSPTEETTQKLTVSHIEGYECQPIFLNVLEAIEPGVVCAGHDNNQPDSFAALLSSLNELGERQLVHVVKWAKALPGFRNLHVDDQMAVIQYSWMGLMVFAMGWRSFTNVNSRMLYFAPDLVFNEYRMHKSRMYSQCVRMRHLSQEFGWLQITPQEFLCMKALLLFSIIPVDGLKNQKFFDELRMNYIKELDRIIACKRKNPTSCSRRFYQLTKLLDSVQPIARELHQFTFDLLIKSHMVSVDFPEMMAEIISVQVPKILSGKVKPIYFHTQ
Put plainly: Androgen Receptor ELISA assay (PathScan AR ELISA) in VCaP cells: AR degradation, Dmax and DC50. The data set is classed as cell-based. The note with it: for Dmax: VCaP, read-out: VCaP Dmax (%); for DC50: read-out: VCaP DC50. A digest of the protocol: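 After 24 h exposure of VCaP cells (charcoal-stripped serum, 0.1 nM R1881 agonist, 0.1% DMSO) to seven half-log compound concentrations, residual AR in lysates was measured by PathScan ELISA (TMB absorbance, 450 nm). Cells were plated at 30,000/well and grown at least 3 days beforehand.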

The subject of the next data set is VCaP cells. The data set is described as follows: VCaP cell proliferation assay (Cell Titer Glo), GI50. In kind it is cell-based. The note with it: for GI50: Homo sapiens, VCaP cells, 0.1 nM R1881, Table 37, read-out: GI50, Inhibition of VCaP Proliferation. A digest of the protocol:
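VCaP cells at 7,500/well were androgen-depleted for at least 3 days in phenol red-free RPMI with 5% charcoal-stripped FBS, then dosed with PROTACs plus 0.1 nM R1881. Growth was read by CellTiter Glo luminescence against a baseline taken on the day of dosing, giving GI50.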

Data set [5] is described as follows: PROTAC prodrug oral pharmacokinetics in CD-1 mice. The data set is classed as in vivo. The note with it: male, mouse, plasma, 10 mg/kg, 10 mpk PO; for AUC: read-out: Plasma Exposure Prodrug AUC; for Cmax: read-out: Plasma Exposure Prodrug Cmax. Here is the method:
as §1, §2, §3, §4, §5

A further data set concerns VCaP xenograft. The data set is described as follows: Tumor growth inhibition in VCaP xenograft model. The note with it: VCaP cells s.c. in castrated CB17 scid mice; enzalutamide PO, QD, 30 mpk; Example 163 IP, QD, 30, 10 and 3 mpk. The data set is classed as in vivo. An excerpt:
FIG. 6. Tumor growth inhibition in VCaP xenograft model. VCaP cells were implanted into CB17 scid mice subcutaneously. Once the tumors were palpable, the mice were castrated, leading to temporary tumor stasis.
7. Tumor Growth Inhibition in VCaP Xenograft Model.
VCaP cells were implanted into CB17 scid mice subcutaneously. Once the tumors were palpable, the mice were castrated, leading to temporary tumor stasis.

[6] abbreviates: highest percentage of Androgen Receptor degradation observed, VCaP cells (Table 32).
[7] abbreviates: vehicle ESP-4, prodrug measured.
Setting [8] is: vehicle ESD-4, prodrug measured.

In general, DC50 refers to the concentration at which degradation of the target reaches its halfway point. Broadly, the Dmax is the greatest extent of degradation seen. Broadly, the Cmax is the highest concentration seen after dosing. Take `Cc1ncsc1-c1ccc(CNC(=O)[C@@H]2C[C@@H](O)CN2C(=O)[C@@H](NC(=O)COCCCOCCCCCOc2ccc(N3C(=S)N(c4ccc(C#N)c(C(F)(F)F)c4)C(=O)C3(C)C)cc2)C(C)(C)C)cc1` [Example 1, (2S,4R)-1-((S)-2-(2-(3-(5-(4-(3-(4-cyano-3-(trifluoromethyl)phenyl)-5,5-dimethyl-4-oxo-2-thioxoimidazolidin-1-yl)phenoxy)pentyloxy)propoxy)acetamido)-3,3-dimethylbutanoyl)-4-hydroxy-N-(4-(4-methylthiazol-5-yl)benzyl)pyrrolidine-2-carboxamide]: the DC50 on Androgen Receptor [1] (concentration that caused 50% Androgen Receptor degradation) was less than 0.05 µM; at Androgen Receptor [4] (concentration that caused 50% Androgen Receptor degradation, VCaP cells), less than 0.05 µM. Further, the maximal degradation (Dmax) on Androgen Receptor [1] (highest percentage of Androgen Receptor degradation observed) is greater than 71%; at Androgen Receptor [4] it was 51 to 70%. Besides, in data set [2], the “proliferation / agonist activity in LNCaP F876L cells” value is reported as “did not exhibit agonist activity; also recorded: Anti-proliferation in LNCaP F876L cells observed”. The “AR degradation activity in the presence of VHL E3 ligase ligand compound B” value at AR (24 hours, 10 uM compound B) is on record as “greatly diminishes the AR degradation activity”. Further, the “degradation of AR” value on AR (PROTAC versus inactive epimer analog unable to bind VHL E3 ligase) is on record as “significant degradation of AR”. Moreover, the AUC(0-t) in data set [3] (vehicle ESD-1) is 15600 ng·h/mL. Besides, the maximum concentration (Cmax) in data set [3] (vehicle ESD-1) is 1150 ng/mL.
As to `Cc1ncsc1-c1ccc([C@H](C)NC(=O)[C@@H]2C[C@@H](O)CN2C(=O)[C@@H](NC(=O)COCCCCCNc2ccc(C(=O)N[C@H]3C(C)(C)[C@H](Oc4ccc(C#N)c(Cl)c4)C3(C)C)cc2)C(C)(C)C)cc1` [Example 174, (2S,4R)-1-[(2S)-3,3-dimethyl-2-[2-({5-[(4-{[trans-3-(3-chloro-4-cyanophenoxy)-2,2,4,4-tetramethylcyclobutyl]carbamoyl}phenyl)amino]pentyl}oxy)acetamido]butanoyl]-4-hydroxy-N-[(1S)-1-[4-(4-methyl-1,3-thiazol-5-yl)phenyl]ethyl]pyrrolidine-2-carboxamide], the GI50 with VCaP cells was no more than 0.05 µM. Also, in data set [3] (vehicle ESD-1), the AUC(0-t) amounted to 35100 ng·h/mL and the Cmax worked out at 1900 ng/mL. The Dmax on Androgen Receptor [4] (setting [6]) was greater than 71%. For the same compound, the half-maximal degradation concentration (DC50) at Androgen Receptor [4] (concentration that caused 50% Androgen Receptor degradation, VCaP cells (Table 32)) was less than 0.05 µM.
For `Cc1ncsc1-c1ccc(CNC(=O)[C@@H]2C[C@@H](O)CN2C(=O)[C@@H](NC(=O)COCCOc2ccc(-c3ccc(C(=O)N[C@H]4C(C)(C)[C@H](Oc5ccc(C#N)c(Cl)c5)C4(C)C)cc3)cc2)C(C)(C)C)cc1` [Example 182, (2S,4R)-1-[(2S)-3,3-dimethyl-2-(2-{2-[4-(4-{[trans-3-(3-chloro-4-cyanophenoxy)-2,2,4,4-tetramethylcyclobutyl]carbamoyl}phenyl)phenoxy]ethoxy}acetamido)butanoyl]-4-hydroxy-N-{[4-(4-methyl-1,3-thiazol-5-yl)phenyl]methyl}pyrrolidine-2-carboxamide], the GI50 with VCaP cells is no more than 0.05 µM. In addition, in data set [3] (vehicle ELP-1), the AUC(0-t) amounted to 29200 ng·h/mL and the highest concentration (Cmax) came out at 1530 ng/mL. For the same compound, the Dmax at Androgen Receptor [4] (setting [6]) was greater than 71%.
One may read the AUC as concentration integrated over time. On to `Cc1ncsc1-c1ccc([C@H](C)NC(=O)[C@@H]2C[C@@H](OC(=O)[C@@H](N)C(C)C)CN2C(=O)[C@@H](NC(=O)COCCCCCNc2ccc(C(=O)N[C@H]3C(C)(C)[C@H](Oc4ccc(C#N)c(Cl)c4)C3(C)C)cc2)C(C)(C)C)cc1` [Example 463], for which, in data set [5] (setting [7]), the AUC turned out to be 49 ng·h/mL and the peak concentration (Cmax) was 12 ng/mL.
For the compound `Cc1ncsc1-c1ccc([C@H](C)NC(=O)[C@@H]2C[C@@H](O)CN2C(=O)[C@@H](NC(=O)COCCCCCNc2ccc(C(=O)N[C@H]3C(C)(C)[C@H](Oc4ccc(C#N)c(C(F)(F)F)n4)C3(C)C)cc2)C(C)(C)C)cc1` [Example 464], in data set [5] (setting [7]), the AUC turned out to be 118 ng·h/mL and the Cmax amounted to 48 ng/mL. At Androgen Receptor [4] (VCaP cells, Table 35), the 50% degradation concentration (DC50) is greater than 0.501 µM and the greatest degradation seen (Dmax) was greater than 71%.
`CC(=O)O[C@@H]1C[C@@H](C(=O)N[C@@H](C)c2ccc(-c3scnc3C)cc2)N(C(=O)[C@@H](NC(=O)COCCCCCNc2ccc(C(=O)N[C@H]3C(C)(C)[C@H](Oc4ccc(C#N)c(Cl)c4)C3(C)C)cc2)C(C)(C)C)C1` [Example 469]: in data set [5] (setting [8]), the AUC came to 353 ng·h/mL and the Cmax stood at 181 ng/mL. Further, at Androgen Receptor [4] (VCaP cells, Table 35), the DC50 is less than 0.05 µM and the greatest degradation seen (Dmax) was greater than 71%.
`Cc1ncsc1-c1ccc([C@H](CN(C)C)NC(=O)[C@@H]2C[C@@H](O)CN2C(=O)[C@@H](NC(=O)COCCCCCOc2ccc(C(=O)N[C@H]3C(C)(C)[C@H](Oc4ccc(C#N)c(Cl)c4)C3(C)C)cc2)C(C)(C)C)cc1` [Example 470]: in data set [5] (setting [7]), the AUC was 469 ng·h/mL and the Cmax stood at 346 ng/mL. For the same compound, at Androgen Receptor [4] (VCaP cells, Table 35), the half-maximal degradation concentration (DC50) was less than 0.05 µM and the Dmax was greater than 71%.
Regarding `CNC(=O)c1ccc(N2C(=S)N(c3ccc(C#N)c(C(F)(F)F)c3)C(=O)C2(C)C)cc1F` [enzalutamide, reference compound], the Tumor growth inhibition entry in the data set on VCaP xenograft is “Tumor growth inhibition was observed”. Further, in the data set with VCaP cells (LNCap and VCaP cell systems, increasing concentrations of AR agonist R1881 and cells containing the AR F876L mutation), the anti-proliferative activity entry was “inactive”.
